The values below come from ChEMBL document CHEMBL1201862, “PubChem BioAssay data set” (2004).

Test systems include A498; A549; CCRF-CEM; EKVX; HCC 2998; HCT-116; HL-60; HOP-62; HOP-92; HT-29; Hs-578T; KM12; NCI-H226; NCI/ADR-RES; OVCAR-3; OVCAR-8; RPMI-8226; RXF 393; SF-268; SK-MEL-2.
What all share (assay): growth of human tumour cells (NCI), 48 h

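48-hour exposure; five concentrations; linearly interpolated endpoints. Abbreviation: GI50, concentration required for 50% inhibition of growth.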 Activity calls are given as the source filed them. Rule as the data show it: active = GI50 up to about 1.1 µM and inactive = higher. Bounds are passed on as bounds.

Regarding `CN(CCC#N)c1ccc(/C=C2\SC(=S)NC2=O)cc1`, the GI50 in the assay with A498 was 30.1 µM (inactive); with A549 it was 34.1 µM (inactive); in the assay with CCRF-CEM, 6.75 µM (inactive); in the assay on EKVX it was > 100 µM (inactive); in the assay on HCC 2998, 51.6 µM (inactive); in the assay with HCT-116 it was 29.2 µM (inactive). For the same compound, the GI50 in the assay on HL-60 was 24.3 µM (inactive); with HOP-62, 41.3 µM (inactive); in the assay with HOP-92, 22.6 µM (inactive); with HT-29, 87.1 µM (inactive); in the assay on Hs-578T, 33.3 µM (inactive); with KM12, 40.7 µM (inactive). In addition, the GI50 in the assay on NCI-H226 was > 100 µM (inactive); with NCI/ADR-RES, > 100 µM (inactive); in the assay on OVCAR-3, 27.7 µM (inactive); in the assay on OVCAR-8 it was > 100 µM (inactive); in the assay on RPMI-8226, 34 µM (inactive); in the assay with RXF 393, 23.6 µM (inactive). For the same compound, the GI50 in the assay on SF-268 was 63.1 µM (inactive); in the assay on SK-MEL-2, 35 µM (inactive).

In the case of `CCCCCC(O)C1C(=O)OC(C)C(O)/C=C/C=C/C=C/C=C\C=C(\C)C(O)CC(O)CC(O)CC(O)CC(O)CC(O)CC1O` (stereo unspecified), the GI50 with A498, in the assay on A549, in the assay with CCRF-CEM, with EKVX, in the assay on HCC 2998 and with HCT-116 was > 50 µM (inactive) in each case. For the same compound, the GI50 with HL-60, in the assay with HOP-62, with HOP-92, in the assay with HT-29, in the assay on Hs-578T and in the assay with KM12 was > 50 µM (inactive) throughout. For the same compound, the GI50 with NCI-H226, with NCI/ADR-RES, in the assay with OVCAR-3, with OVCAR-8, in the assay with RPMI-8226 and in the assay with RXF 393 was > 50 µM (inactive) in each case. For the same compound, the GI50 in the assay with SF-268 and with SK-MEL-2 was > 50 µM (inactive) each time.

Take `CN(C)CCCNc1ccc2ncn3c4ccc(O)cc4c(=O)c1c23`: the GI50 with A498 was 0.697 µM (active); in the assay on A549, 0.0721 µM (active); in the assay with CCRF-CEM, 0.218 µM (active); in the assay with EKVX it was 4.71 µM (inactive); in the assay on HCC 2998 it was 4.43 µM (inactive); with HCT-116 it was 0.458 µM (active). Also, the GI50 in the assay on HL-60 was 0.277 µM (active); in the assay on HOP-62, 0.538 µM (active); in the assay with HOP-92, 0.705 µM (active); in the assay with HT-29, 1.3 µM (inactive); with Hs-578T, 0.541 µM (active); in the assay on KM12 it was 3.14 µM (inactive). In addition, the GI50 with NCI-H226 was 0.483 µM (active); in the assay with NCI/ADR-RES, 12.4 µM (inactive); in the assay on OVCAR-3, 3.58 µM (inactive); with OVCAR-8 it was 1.07 µM (active); in the assay with RPMI-8226 it was 1.58 µM (inactive); with RXF 393, 0.439 µM (active). For the same compound, the GI50 in the assay on SF-268 is 0.957 µM (active); with SK-MEL-2, 6.21 µM (inactive).

For the compound `O=C1OC(C2Cc3ccc4ccccc4c3C2=O)c2ccccc21` (stereo unspecified), the GI50 was > 100 µM (inactive) in the assay on A498; 36.9 µM (inactive) in the assay with A549; 31 µM (inactive) in the assay on CCRF-CEM; 29.6 µM (inactive) in the assay with EKVX; 55.5 µM (inactive) in the assay on HCC 2998; 41.4 µM (inactive) in the assay with HCT-116. Further, the GI50 was 50 µM (inactive) in the assay with HL-60; 49.8 µM (inactive) in the assay with HOP-92; 31.6 µM (inactive) with Hs-578T; 28.3 µM (inactive) in the assay on KM12; 19.5 µM (inactive) with NCI-H226; 49.2 µM (inactive) with NCI/ADR-RES. In addition, the GI50 is 30.5 µM (inactive) with OVCAR-3; 35.6 µM (inactive) with OVCAR-8; 25.9 µM (inactive) in the assay on RPMI-8226; 17.4 µM (inactive) in the assay on RXF 393; 33.8 µM (inactive) with SF-268; 47.8 µM (inactive) in the assay with SK-MEL-2.

For `CC(=O)Nc1ccc2[nH]c(C(=O)N3CC(CCl)c4c3cc([N+](=O)[O-])c3ccccc43)cc2c1` (stereo unspecified), the GI50 was 0.863 µM (active) in the assay on A498; 0.393 µM (active) with A549; 0.879 µM (active) in the assay with CCRF-CEM; 5.09 µM (inactive) in the assay on EKVX; 6.4 µM (inactive) in the assay on HCC 2998; 6.41 µM (inactive) in the assay on HCT-116. The GI50 was 1.01 µM (active) with HL-60; 2.5 µM (inactive) with HOP-92; 29.9 µM (inactive) in the assay with HT-29; 4.26 µM (inactive) in the assay with Hs-578T; 1.73 µM (inactive) in the assay on KM12; 9.38 µM (inactive) in the assay on NCI-H226. For the same compound, the GI50 in the assay on NCI/ADR-RES was 4.45 µM (inactive); in the assay on OVCAR-3, > 100 µM (inactive); in the assay on OVCAR-8, 3.1 µM (inactive); with RPMI-8226, 1.02 µM (active); in the assay with RXF 393, 4.74 µM (inactive); with SF-268 it was 1.98 µM (inactive). Moreover, in the assay on SK-MEL-2, the GI50 was 13.8 µM (inactive).

Turning to `CCOC(=O)c1ccc(/N=c2/[nH]c3ccccc3s/c2=N/c2ccc(C(=O)OCC)cc2)cc1`, the GI50 in the assay with A498 is 82 µM (inactive); in the assay on A549 it was 95.7 µM (inactive); in the assay on CCRF-CEM it was > 100 µM (inactive); with EKVX it was > 100 µM (inactive); with HCC 2998, > 100 µM (inactive); in the assay with HCT-116, 53.1 µM (inactive). For the same compound, the GI50 with HL-60 is > 100 µM (inactive); in the assay with HOP-62 it was > 100 µM (inactive); in the assay with HOP-92 it was > 100 µM (inactive); in the assay on HT-29 it was 70.3 µM (inactive); in the assay on Hs-578T, 39.5 µM (inactive); in the assay on KM12, > 100 µM (inactive). Also, the GI50 in the assay on NCI-H226 was > 100 µM (inactive); in the assay with NCI/ADR-RES, 88.9 µM (inactive); in the assay with OVCAR-8, 86.7 µM (inactive); in the assay on RPMI-8226, > 100 µM (inactive); in the assay with RXF 393, > 100 µM (inactive); in the assay with SF-268 it was > 100 µM (inactive). The GI50 with SK-MEL-2 was > 100 µM (inactive).

Turning to `C=CC1(C)OC2(CCN(C(=O)OCC)CC2)OC1C` (stereo unspecified), the GI50 in the assay with A498, with A549, with CCRF-CEM, in the assay on EKVX, in the assay on HCC 2998 and in the assay on HL-60 was > 100 µM (inactive) throughout. The GI50 in the assay on HOP-62, in the assay with HOP-92, in the assay on HT-29, with Hs-578T, with KM12 and in the assay with NCI-H226 was > 100 µM (inactive) throughout. Further, the GI50 in the assay on NCI/ADR-RES, with OVCAR-3, in the assay on OVCAR-8, in the assay with RPMI-8226, in the assay on RXF 393 and in the assay with SF-268 was > 100 µM (inactive) in each case. Also, the GI50 in the assay on SK-MEL-2 was > 100 µM (inactive).

On to `C[C@H]1C[C@H](C)c2ccccc2N(C)/C1=N\c1ccccc1`, for which the GI50 is 25.2 µM (inactive) in the assay on A498; 34.7 µM (inactive) in the assay on A549; 25.5 µM (inactive) in the assay on EKVX; 39.2 µM (inactive) in the assay with HCC 2998; 13.3 µM (inactive) with HCT-116; 3.93 µM (inactive) in the assay on HL-60. The GI50 was 19.3 µM (inactive) with HOP-62; 8.51 µM (inactive) in the assay on HOP-92; 4.58 µM (inactive) in the assay on HT-29; 24.7 µM (inactive) with Hs-578T; 43.3 µM (inactive) in the assay with KM12; 24.5 µM (inactive) with NCI-H226. The GI50 in the assay on NCI/ADR-RES is 27.2 µM (inactive); with OVCAR-3 it was 28.1 µM (inactive); in the assay on OVCAR-8, 43.2 µM (inactive); with RPMI-8226, 36.7 µM (inactive); in the assay on RXF 393, 34.6 µM (inactive); in the assay with SF-268 it was 56 µM (inactive). Besides, the GI50 in the assay on SK-MEL-2 was 20.5 µM (inactive).

As to `C=C1C[C@@H]2CC[C@@]34CC5O[C@H]6C(O[C@H]7CC[C@H](CC(=O)O[C@@H]8[C@@H](C)[C@@H]9O[C@@H]%10C[C@]%11(C[C@@H]%12O[C@]%13(C[C@H](C)[C@@H]%14O[C@@H]%15CC(C(O)CO)O[C@@H]%15C[C@@H]%14O%13)C[C@H](C)[C@@H]%12O%11)O[C@@H]%10C[C@@H]9O[C@H]8CC8O[C@@H](CC[C@@H]1O2)C[C@@H](C)C8(O)CO)O[C@@H]7[C@@H]6O3)[C@H]5O4` (stereo partly specified), the GI50 is > 1 µM (active) with A498; > 0.891 µM (active) in the assay on A549; > 1 µM (active) in the assay with CCRF-CEM; > 1 µM (active) with EKVX; > 1 µM (active) with HCC 2998; 0.627 µM (active) in the assay with HCT-116. Besides, the GI50 with HL-60 is > 1 µM (active); in the assay with HOP-62, > 1 µM (active); in the assay with HOP-92, > 0.615 µM (active); with Hs-578T, 0.0627 µM (active); with KM12, > 0.726 µM (active); in the assay on NCI-H226, 0.986 µM (active). Further, the GI50 in the assay with NCI/ADR-RES was > 1 µM (active); in the assay on OVCAR-3, 0.594 µM (active); with OVCAR-8, > 1 µM (active); in the assay with RPMI-8226 it was > 0.849 µM (active); in the assay with RXF 393, 0.516 µM (active); with SF-268, > 1 µM (active). In the assay with SK-MEL-2, the GI50 is > 0.859 µM (active).

For the compound `CN(C)c1nc2nonc2nc1Nc1ccccc1`, the GI50 in the assay on A498, in the assay with A549, in the assay on CCRF-CEM, in the assay with EKVX, with HCC 2998 and in the assay on HCT-116 was > 100 µM (inactive) each time. For the same compound, the GI50 with HL-60, in the assay with HOP-62, in the assay on HOP-92, in the assay on HT-29, in the assay on Hs-578T and in the assay with NCI-H226 was > 100 µM (inactive) throughout. The GI50 in the assay with NCI/ADR-RES, in the assay on OVCAR-8, with RPMI-8226, in the assay with RXF 393, in the assay with SF-268 and in the assay on SK-MEL-2 was > 100 µM (inactive) throughout.
